Measured values published in US20240374626A1, “METHODS OF ENHANCING MILK PRODUCTION IN LACTATING MAMMALIAN SUBJECTS” (priority 2023, published 2024).

What was measured:
[1] = tested on: Csn2; assay: Contralateral intraductal injection: Csn2 expression in MGs by RT-qPCR; assay type: in vivo, mouse
Procedure: (§1) Nulliparous analysis was performed using adult (10-12-week-old) female mice. For timed pregnancies and lactation analysis, CD-1 pregnant adult females were obtained from Charles Rivers. Embryos were examined at the time of mammary gland harvesting to confirm pregnancy state. […] Plugged mice were considered to be PD0.5 on the day of the observed plug. All females used in this study were age matched.
(§2) Mice were anesthetized with isoflurane (VetOne, 501017) Prior to intraductal injections, hair was removed from around the nipples using Nair hair remover. Injections into the duct of the nipple were performed with 33 G needles (Hamilton, 7803-05) and a volume of 40 μl per gland. Right inguinal, abdominal and thoracic glands were injected with doxorubicin (1.5 μg per gland, Cayman Chemical, 15007), nucleosides (40 μl per gland, Millipore-Sigma, ES-008-D) or Mk-1775 (50 μg per gland, Cayman Chemical, 21266), and left glands were injected with PBS or DMSO (Thermo Scientific, BP231) diluted in PBS.
For RNA isolation from FACS purified populations, mammary gland cell suspensions were blocked using Mouse BD Fc Block™ (BD Biosciences) for 10 min. Cells were subsequently resuspended on 1×PBS at a density of 10^7 cells/ml and stained with the following antibodies for 30 min on ice: anti-CD24 PE (Stem Cell Technologies, 60099PE.1), anti-CD29 PE-Cy7 (BioLegend, 102222), anti-CD45-APC (BioLegend,105826), Ter119-APC (BD Biosciences, 561033), CD31-ACP (BD Biosciences, 551262). Propidium iodide at a final concentration of 0.5 μg/ml was used for the discrimination of dead cells. Stromal, basal and luminal mammary populations were sorted using a BD FACS Aria II Cell Sorter. […] Total RNA quality was analyzed by agarose gel electrophoresis and quantified using an ND-1000 spectrophotometer (NanoDrop). cDNA was prepared from 500-1000 ng of total RNA using iScript cDNA synthesis kit (Bio-Rad, 1708841). Quantitative RT-qPCR was performed in triplicates using SsoAdvanced Universal SYBR Green Supermix, (Bio-Rad, 1725272). […]

[2] = tested on: γH2AX; assay: Contralateral intraductal injection: γH2AX IHC in CK8+ luminal cells of MG; assay type: in vivo, mouse; conditions: doxorubicin IDI (1.5 μg per gland) at PD12.5 vs contralateral DMSO vehicle, 24 h post-injection (PD13.5)
Procedure: as §1, §2
Mammary gland tissue was fixed in 10% neutral buffered formalin (EMD Millipore, MR0458682) at 4° C. overnight. Fixation was quenched using 0.2% glycine (Fisher Scientific, BP381) in PBS, for 1 h at room temperature. […] Integrated density of nuclear γH2AX and pATR was quantified using ImageJ.

Compound	Csn2 expression, RT-qPCR ([1]; Mk-1775 IDI at PD16.5 vs contralateral DMSO, LD2 or LD5 MGs)	γH2AX in CK8+ luminal cells [2]	milk production as Csn2 expression, RT-qPCR ([1]; doxorubicin IDI at PD12.5 vs contralateral DMSO, PD17.5 MGs)
C=CCn1c(=O)c2cnc(Nc3ccc(N4CCN(C)CC4)cc3)nc2n1-c1cccc(C(C)(C)O)n1 [Mk-1775]	decrease	–	–
COc1cccc2c1C(=O)c1c(O)c3c(c(O)c1C2=O)C[C@@](O)(C(=O)CO)C[C@@H]3O[C@H]1C[C@H](N)[C@H](O)[C@H](C)O1 [doxorubicin]	–	Increased	increase
